The values below come from PMC12113668, “Discovery of Potential Scaffolds for Methionine Adenosyltransferase 2A (MAT2A) Inhibitors: Virtual Screening, Synthesis, and Biological Evaluation” (Molecules, 2025).

As a reminder, the IC50 is the concentration that inhibits the measured activity by half.

“And” between values parts separate entries of the source, which are not always exact repeats. Identical values can stand only once. “Also recorded” adds a separate entry of the source.

One series relates to Parental HCT116 cells. Nature of the series: Cellular antiproliferation assay (CCK8), parental HCT116. It counts as cell-based. The following applies: Homo sapiens, HCT-116, 72 h, mean ± SD.
Series [1] in a line: Cytotoxicity of new compounds in HEK293A. The format is cell-based. The following applies: human, HEK293A cells.
Another series concerns MTAP−/− HCT116 cells. Nature of the series: Cellular antiproliferation assay (CCK8), MTAP-deleted HCT116. The format is cell-based. The following applies: Homo sapiens, HCT-116, 72 h, mean ± SD. The method, then: Cell viability assays were performed using Cell Counting Kit-8 (CCK8). Briefly, the MTAP-deleted HCT116 cells (Horizon) were plated at 1000 cells per well in 96-well plates in RPMI-1640 medium with 10% FBS and 1% PS, and then incubated at 37 °C under a 5% CO2 atmosphere overnight. The stock solutions were serially diluted 3-fold in DMSO to obtain an eight-point dilution curve with final compound concentrations and test compounds added. After 72 h, 10 μL CCK-8 dye was added in each well and the cells were incubated for 2–4 h. […] was measured at 450 nm. Dose response curves were analyzed in GraphPad Prism 8.

For a further series, the target named is MAT2A (Homo sapiens, UniProt P31153). The series can be described thus: MAT2A enzymatic assay (colorimetric Phosphate Assay Kit-PiColorLock). The format is biochemical. Particulars: for Maximum Inhibition (%): MAT2A enzymatic assay; for IC50: mean ± SD, at least three independent experiments, NA: no activity at 10 μM; for MAT2A inhibitory activity (in words): up to 10 μM. The method, then:
The inhibition of MAT2A by each compound was determined using the colorimetric Phosphate Assay Kit-PiColorLock (#ab270004) as described previously. […] Assay measurements were performed in 1X buffer containing 50 mM Tris, 50 mM KCl, 10 mM MgCl2, and 0.05% Brij-35 (pH 8.0) in a final assay volume of 5 μL. A total of 2.5 μL of MAT2A protein with a final concentration of 20 μg/mL was added to each well of a 384 well assay plate containing 100 nL of each concentration of test compound dissolved in DMSO and incubated for 30 min at room temperature. ATP (100 μM final concentration) and L-Met (100 μM final concentration) were subsequently added and incubated for 30 min at room temperature. Then 20 μL of the phosphate assay kit substrate was added to each well, incubated at room temperature for 30 min, and then the absorbance was measured at 620 nm on a plate reader.

For series [2], the system named is HCT116 MTAP-deleted xenograft tumor. It counts as in vivo. Particulars: for tumor growth inhibition (TGI): 30 mg/kg orally q.d. for 19 days; for tumor growth inhibition (TGI) / T/C (%) relative tumor proliferation rate: BALB/c nude mice, HCT116 MTAP−/− xenograft; for T/C (%) relative tumor proliferation rate / Tumor volume / Histopathological analysis (H&E staining) of tumor tissues: 30 mg/kg orally q.d.; for Tumor volume: mean ± SD, at end of study; for Histopathological analysis (H&E staining) of tumor tissues: xenograft tumor tissue. As for the experimental part: The antitumor efficacy of compound 17 was evaluated in female BALB/c nude mice using a standardized tumor xenotransplantation model. Animals were maintained under specific-pathogen-free (SPF) conditions, and all experimental procedures adhered to institutional animal care protocols approved by the Institute of Radiation Medicine, the Chinese Academy of Medical Sciences, and Peking Union Medical College, complying with national guidelines for humane treatment. For tumor induction, 2 × 10^6 HCT-116 MTAP^−/− cells suspended in PBS were subcutaneously implanted into the right hind flank. Following a 7-day engraftment period, mice were stratified into three cohorts (n = 5/group) via block randomization performed by an independent researcher to minimize selection bias. Compound 17 was administered orally at 30 mg/kg once daily, using 5% DMSO + 10% Solutol HS-15 + 85% saline as the vehicle solution. The positive control AG-270 was dosed at the same regimen (30 mg/kg, orally, once daily) with identical vehicle composition. Tumor progression was monitored every other day through digital caliper measurements, with volumes calculated using the ellipsoid approximation formula: V = 0.5 × length × width^2.

Sequence of MAT2A (P31153 whole entry): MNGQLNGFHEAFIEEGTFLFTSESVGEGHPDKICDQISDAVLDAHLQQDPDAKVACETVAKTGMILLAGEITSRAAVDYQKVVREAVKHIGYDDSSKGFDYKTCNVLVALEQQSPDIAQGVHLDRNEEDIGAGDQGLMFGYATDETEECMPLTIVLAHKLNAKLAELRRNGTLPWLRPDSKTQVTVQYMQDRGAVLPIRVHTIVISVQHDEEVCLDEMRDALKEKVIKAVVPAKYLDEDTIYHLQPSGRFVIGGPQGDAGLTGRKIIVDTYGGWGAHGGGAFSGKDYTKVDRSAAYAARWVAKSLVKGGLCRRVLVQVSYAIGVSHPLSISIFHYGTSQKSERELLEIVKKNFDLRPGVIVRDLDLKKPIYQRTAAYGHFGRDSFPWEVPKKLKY

In the case of `COc1ccc(NC(=O)c2ccc3scnc3c2)cc1` [Compound 15, N-(4-Methoxyphenyl)benzo[D]thiazole-5-carboxamide], the IC50 in the series with Parental HCT116 cells is over 10 µM; in series [1], over 100 µM; with MTAP−/− HCT116 cells, 2.2 ± 0.1 µM; against MAT2A, 0.91 ± 0.09 µM. Besides, the “Maximum Inhibition (%)” value on MAT2A was 80%.

For the compound `CCOC(=O)c1[nH]c2c(c1Cc1ccccc1)C(=O)CC(C)(C)C2` [Compound 10], in series [1], the half-maximal inhibitory concentration (IC50) was over 100 µM. The “MAT2A inhibitory activity (in words)” value at MAT2A was “no detectable activity; also recorded: inactive”.

As to `COc1ccc(NC(=O)c2cccc(N3CCCCC3)c2)cc1` [Compound 18, N-(4-Methoxyphenyl)-3-(piperidin-1-Yl)benzamide], the IC50 in series [1] is over 100 µM; against MAT2A, 0.78 ± 0.15 µM. Besides, the “Maximum Inhibition (%)” value at MAT2A was 72%.

Regarding `COc1ccc(-c2c(Nc3ccccn3)[nH]c3c(C4=CCCCC4)c(-c4ccccc4)nn3c2=O)cc1` [AG-270, reference compound], in series [2], the “tumor growth inhibition (TGI)” value turned out to be 80.4%, the “T/C (%) relative tumor proliferation rate” value stood at 22.9%, the Tumor volume stood at 351.9 ± 96.1 mm3 and the “Histopathological analysis (H&E staining) of tumor tissues” value is “reduced cellular proliferation”.

For the compound `CN(C)c1nc(=O)n(-c2ccccc2)c2cc(Cl)ccc12` [6 (AZ-28), AZ-28, reference compound], the half-maximal inhibitory concentration (IC50) in the series with Parental HCT116 cells was determined as 1.9 ± 0.2 µM; with MTAP−/− HCT116 cells, 0.35 ± 0.13 µM.

As to `CCOC(=O)c1c(C)c(C(=O)Nc2ccc(OC)cc2)c(C)n1C` [Compound 11], the IC50 is over 100 µM in series [1] and 15.6 ± 3.1 µM against MAT2A.

As to `COc1ccc(NC(=O)c2cn(C)c3ncccc23)cc1F` [Compound A11], the IC50 in the series with Parental HCT116 cells is over 10 µM; in series [1], over 100 µM; with MTAP−/− HCT116 cells, 6 ± 0.4 µM; at MAT2A it was 4.6 µM and 2.5 µM. On MAT2A, the “Maximum Inhibition (%)” value is 76%.

Compound `CCOC(=O)c1[nH]c2c(c1-c1ccccc1)C(=O)CC(c1ccccc1)C2` (centres unmarked) [Compound 8, Ethyl 4-Oxo-3,6-diphenyl-4,5,6,7-tetrahydro-1H-indole-2-carboxylate] gave an IC50 in series [1] of over 100 µM. On MAT2A, the “Maximum Inhibition (%)” value is 47% and the IC50 amounted to 6.8 ± 0.2 µM.

Regarding `COc1ccc(NC(=O)c2cccc(-n3cccc3)c2)cc1` [Compound 17, N-(4-Methoxyphenyl)-3-(1H-pyrrol-1-Yl)benzamide], the IC50 with Parental HCT116 cells was over 10 µM. This compound yielded an IC50 in series [1] of over 100 µM. In the series on MTAP−/− HCT116 cells, the IC50 worked out at 1.4 ± 0.3 µM. At MAT2A, the “Maximum Inhibition (%)” value came to 84% and the IC50 turned out to be 0.43 ± 0.06 µM. Further, in series [2], the “tumor growth inhibition (TGI)” value is reported as 58.4%, the “T/C (%) relative tumor proliferation rate” value worked out at 44.4%, the Tumor volume worked out at 659.9 ± 100.2 mm3 and the “Histopathological analysis (H&E staining) of tumor tissues” value is reported as “reduced cellular proliferation”.

For `COc1ccc(NC(=O)c2cccc3ncsc23)cc1` [Compound 16, N-(4-Methoxyphenyl)benzo[D]thiazole-7-carboxamide], in series [1], the IC50 is over 100 µM. For the same compound, at MAT2A, the “MAT2A inhibitory activity (in words)” value was “complete loss of binding affinity; also recorded: abolished activity entirely”.

In series [1], `CCOC(=O)c1[nH]c2c(c1Cc1ccccc1)C(=O)CC(c1ccccc1)C2` (centres unmarked) [Compound 9, Ethyl 3-Benzyl-4-oxo-6-phenyl-4,5,6,7-tetrahydro-1H-indole-2-carboxylate] registered an IC50 of over 100 µM. On MAT2A, the “MAT2A inhibitory activity (in words)” value was “no detectable activity; also recorded: inactive”.

As for `CCn1cc(C(=O)Nc2ccc(OC)cc2)c2cccnc21` [Compound 12], in series [1], the IC50 is over 100 µM. For the same compound, at MAT2A, the “Maximum Inhibition (%)” value is on record as 86% and half-maximal inhibition (IC50) required 2.9 ± 0.2 µM.

As to `Cn1cc(C(=O)Nc2ccc3c(c2)OCO3)c2ccccc21` [Compound 14], the IC50 in series [1] is over 100 µM. For the same compound, the “MAT2A inhibitory activity (in words)” value on MAT2A is listed as “completely lost its binding affinity; also recorded: abolished activity entirely”.

For `CCOC(=O)c1[nH]c2c(c1Cc1ccccc1OC)C(=O)CC(c1ccc(OC)cc1)C2` (centres unmarked) [Compound A10], the IC50 in series [1] is 55.6 ± 7.8 µM; on MAT2A, 4.6 ± 0.3 µM. Further, at MAT2A, the “Maximum Inhibition (%)” value was 65%.

On to `COc1ccc(NC(=O)c2cn(C)c3ccccc23)cc1` [Compound 13, N-(4-Methoxyphenyl)-1-methyl-1H-indole-3-carboxamide], for which the IC50 in series [1] was over 100 µM. For the same compound, on MAT2A, the “Maximum Inhibition (%)” value came to 82% and the IC50 worked out at 2.1 ± 0.6 µM.
